The values that follow come from patent US20250214977A1, “STAT6 INHIBITORS AND USES THEREOF” (Kymera Therapeutics, Inc., priority 2024, published 2025).

pIC50: −log10 of the molar value. A value given as a limit tells only on which side of the number the result lay.

The subject of this test is Phosphorylation of STAT6 in human A549 cells. In words: Phosphorylated STAT6 (pSTAT6) flow cytometry assay in human A549 cells. Conditions: read-out: STAT6 IL4 pSTAT6 assay in A549 cells: Average IC50. The class given is cell-based. The text has this:
Example 3. Phosphorylated STAT6 (pSTAT6) Flow Cytometry Assay in Human A549 Cells
Phosphorylation of STAT6 in human A549 cells was quantitatively measured using flow cytometry technology.
As to `CC(=O)c1ccccc1-c1cc(C2=CCCN(C(C)=O)C2)c(F)c2[nH]c(C(=O)N(C)C)cc12` [Example I-1097], the pIC50 was less than 4.00.
Under `O=C(CCn1ccnn1)N1CCC=C(c2cc(-c3ccccc3)c3cc(C(=O)N4CCN(c5ncccc5OC5CC5)CC4)[nH]c3c2F)C1` [Example I-938] stands more than 7.00.
The value for `CCc1cc(C)ncc1-c1cc(C2=CCCN(C(=O)CCn3ccnn3)C2)c(F)c2[nH]c(C(=O)N3CCN(c4ncc(F)cc4OC)CC3)cc12` [Example I-707] was 4.00 to 5.00; that for `CN(C)C(=O)c1cc2cc(C3=CCCN(C(=O)C(Cn4ccnn4)c4cccc(CO)c4)C3)ccc2o1` (stereo not drawn) [Example I-833] was 6.00 to 7.00.
Regarding `COc1cnccc1-c1cc(C2=CCCN(C(=O)CCn3ccnn3)C2)c(F)c2[nH]c(C(=O)N3CCN(c4ncccc4OC)CC3)cc12` [Example I-366], the pIC50 is more than 7.00.
As for `CCc1cc(C(F)F)ncc1-c1cc(C2=CCCN(C(=O)CCn3ccnn3)C2)c(F)c2[nH]c(C(=O)N3CCN(c4nc(C)c(F)cc4OC)CC3)cc12` [Example I-763], the pIC50 was more than 7.00.
Under `CCOc1ccncc1-c1cc(C2=CCCN(C(=O)CCn3ccnn3)C2)c(F)c2[nH]c(C(=O)N3CCN(c4cncnc4OC)CC3)cc12` [Example I-470] stands more than 7.00; under `COc1ccccc1-c1cc(C2=CCCN(C(=O)CCn3ccnn3)C2)c(F)c2[nH]c(C(=O)N3CCN(c4ccc(F)cc4OC)CC3)cc12` [Example I-431], more than 7.00.
As to `CNc1ccc(-c2cc(C3=CCCN(C(=O)C4Cc5c(N)cccc5CN4C=O)C3)cc3cc(C(=O)N(C)C)oc23)c(OC)c1` (stereo not drawn) [Example I-1063], the pIC50 was more than 7.00.
The value for `COc1ccccc1-c1cc(C2=CCCN(C(=O)CCn3ccnn3)C2)c(F)c2[nH]c(C(=O)N3CCN(c4ccc5cn[nH]c5c4)CC3)cc12` [Example I-963] was more than 7.00.
The value for `COc1ccccc1-c1cc(C2=CCCN(C(=O)CCn3ccnn3)C2)c(F)c2[nH]c(C(=O)N3CCN(c4cccnc4)CC3)cc12` [Example I-774] was more than 7.00; that for `COc1ccccc1-c1cc(C2=CCCN(C(=O)CCn3ccnn3)C2)c(F)c2[nH]c(C(=O)N3CCN(c4cc(C)c(=O)n(C)c4)CC3)cc12` [Example I-1023] was more than 7.00.
Under `CCc1ccncc1-c1cc(C2=CCCN(C(=O)CC(=O)O)C2)c(F)c2[nH]c(C(=O)N3Cc4cnn(CC)c4C3)cc12` [Example I-787] stands more than 7.00; under `COc1ccccc1-c1cc(C2=CCCN(C(=O)CCn3ccnn3)C2)c(F)c2[nH]c(C(=O)N3CCN(c4cc(C)cc5c[nH]nc45)CC3)cc12` [Example I-921], 6.00 to 7.00; under “(R)-1-(3-(7-fluoro-2-(4-(5-fluoro-3-methoxypyridin-2-yl)piperazine-1-carbonyl)-4-(1-methylpyrrolidin-3-yl)-1H-indol-6-yl)-5,6-dihydropyridin-1(2H)-yl)-3-(1H-1,2,3-triazol-1-yl)propan-1-one [Example I-812]”, more than 7.00.
Take `COc1c(F)cccc1-c1cc(C2=CCCN(C(=O)CCn3ccnn3)C2)cc2cc(C(=O)N(C)C)oc12` [Example I-1076]: the pIC50 is more than 7.00.
Under `COc1cccnc1N1CCN(C(=O)c2cc3c(-c4ccc(C#N)cn4)cc(C4=CCCN(C(=O)CCn5ccnn5)C4)c(F)c3[nH]2)CC1` [Example I-575] stands more than 7.00.
The value for `CCc1ccncc1-c1cc(C2=CCCN(C(=O)CCn3ccnn3)C2)c(F)c2[nH]c(C(=O)N3Cc4cnn(C)c4C3)cc12` [Example I-704] was 4.00 to 5.00; that for `COc1ccccc1-c1cc(C2=CCCN(C(=O)CCn3ccnn3)C2)c(F)c2[nH]c(C(=O)N3CCN(c4nc5ccccc5n4CC4CC4)CC3)cc12` [Example I-943] was more than 7.00.
Under `COc1ccccc1-c1cc(C2=CCCN(C(=O)CCn3ccnn3)C2)c(F)c2[nH]c(C(=O)N3CCN(c4cncn4C)CC3)cc12` [Example I-1026] stands more than 7.00; under `COc1cccc(N2CCN(C(=O)c3cc4c(-c5cccnc5OC)cc(C5=CCCN(C(=O)CCn6ccnn6)C5)c(F)c4[nH]3)CC2)n1` [Example I-606], more than 7.00.
Take `COc1ccncc1-c1cc(C2=CCCN(C(C)=O)C2)c(F)c2sc(C(=O)N(C)C)cc12` [Example I-555]: the pIC50 is 6.00 to 7.00.
In the case of `COc1ccccc1-c1cc(C(=O)N2CCN(c3ncc(F)cc3OC)CC2)cc2cc(C3=CCCN(C(=O)CCn4ccnn4)C3)n(CC3CC3)c12` [Example I-506], the pIC50 was 4.00 to 5.00.
Under `CCC1=C(c2cc(C3=CCCN(C(=O)CCn4ccnn4)C3)c(F)c3[nH]c(C(=O)N4CCN(c5ncc(F)cc5OC)CC4)cc23)CCCC1` [Example I-1172] stands 6.00 to 7.00; under `COc1ccc(NC(=O)c2cc3c(-c4ccccc4OC)cc(C4=CCCN(C(=O)CCn5ccnn5)C4)c(F)c3[nH]2)cn1` [Example I-979], 6.00 to 7.00; under `COc1cccc(C2=CCN(C(=O)c3cc4c(-c5cnccc5OC)cc(C5=CCCN(C(=O)CCn6ccnn6)C5)c(F)c4[nH]3)CC2)n1` [Example I-443], more than 7.00.
With `CCc1ccncc1-c1cc(C2=CCCN(C(C)=O)C2)c(F)c2[nH]c(C(=O)N3CCN(c4ncccc4OC)CC3)cc12` [Example I-619], the pIC50 is 6.00 to 7.00.
The value for `COc1ccccc1-c1cc(C2=CCCN(C(=O)C(C)C)C2)c(F)c2cc(C(=O)N(C)C)oc12` [Example I-1190] was 6.00 to 7.00; that for `CN(C)C(=O)c1cc2cc(C3=CCCN(C(=O)CCn4ccnn4)C3)cc(NC3CCCC3)c2o1` [Example I-874] was 6.00 to 7.00; that for `CCc1ccncc1-c1cc(C2=CCCN(C(=O)CCn3ccnn3)C2)c(F)c2[nH]c(C(=O)N3CCN(c4ncc(F)cc4OC)CC3)cc12` [Example I-476] was more than 7.00.
Under `CC(C(=O)N1CCC=C(c2ccc3cc(C(=O)N(C)C)[nH]c3c2)C1)n1ccccc1=O` (stereo not drawn) [Example I-825] stands 6.00 to 7.00; under `CN(C)C(=O)c1cc2ccc([C@H]3CCCN(C(=O)CCn4ccnn4)C3)cc2[nH]1` [Example I-1189], 6.00 to 7.00.
Under `CN(C)C(=O)c1cc2c(-c3cc4cc[nH]c4cc3Cl)cc(C3=CCCN(C(=O)CCn4ccnn4)C3)cc2[nH]1` [Example I-1066] stands more than 7.00; under `COc1ccccc1-c1cc(C2=CCCN(C(=O)CCn3ccnn3)C2)c(F)c2[nH]c(C(=O)N3CCN(CCCF)CC3)cc12` [Example I-843], more than 7.00.
Regarding `COc1ccccc1-c1cc(C2=CCCN(C(=O)CCn3ccnn3)C2)c(F)c2[nH]c(C(=O)N3CCN(C)CC3)cc12` [Example I-841], the pIC50 was more than 7.00.
Under `CCCOc1ncccc1-c1cc(C2=CCCN(C(=O)CCn3ccnn3)C2)c(F)c2[nH]c(C(=O)N3CCN(c4ncc(F)cc4OC)CC3)cc12` [Example I-652] stands more than 7.00.
Under `COc1ccccc1-c1cc(C2=CCCN(C(=O)CCn3ccnn3)C2)c(F)c2[nH]c(C(=O)N3CCN(c4cccc(OC(F)F)c4)CC3)cc12` [Example I-427] stands more than 7.00; under `CCC1=C(c2cc(C3=CCCN(C(=O)CCn4ccnn4)C3)c(F)c3[nH]c(C(=O)N4CCN(c5ncc(F)cc5OC)CC4)cc23)CCNC1` [Example I-731], more than 7.00; under `COc1cc(F)cnc1N1CCN(C(=O)c2cc3c(-c4cc(O)cc5ccccc45)cc(C4=CCCN(C(=O)CCn5ccnn5)C4)c(F)c3[nH]2)CC1` [Example I-659], more than 7.00.

As usually defined, the pIC50 is the IC50 on a negative log10 scale, so that one unit is a factor of ten.
